Test results published in patent US9271978B2 (Zenith Epigenetics Corp., priority 2012, dated 2016).

Tests used:
Design in all cases: key: Active: Compounds with an IC50 value less than 30 μM were deemed to be active.; Not Active: Compounds with an IC50 value less than 30 μM were deemed to be active
[1] = biological target: T1, second bromodomain of Brd2 (BRD2(2)) (Homo sapiens, UniProt P25440); test: Inhibition of tetra-acetylated histone H4 binding to Brd2 bromodomain 2 (TR-FRET); conditions: tetra-acetylated histone H4 peptide, active = IC50 <30 μM
T1 construct: made in house; host or cells: E. coli BL21 (DE3)
T1 sequence (P25440 344-453 limits assumed): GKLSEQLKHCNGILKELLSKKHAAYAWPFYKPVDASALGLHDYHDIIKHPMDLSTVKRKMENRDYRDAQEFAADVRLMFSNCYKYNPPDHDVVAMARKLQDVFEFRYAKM
Procedure: Proteins were cloned and overexpressed with a N-terminal 6×His tag, then purified by nickel affinity followed by size exclusion chromatography. Briefly, E. coli BL21 (DE3) cells were transformed with a recombinant expression vector encoding N-terminally Nickel affinity tagged bromodomains from Brd2, Brd3, Brd4. Cell cultures were incubated at 37° C. with shaking to the appropriate density and induced overnight with IPTG. The supernatant of lysed cells was loaded onto Ni-IDA column for purification. Eluted protein is pooled, concentrated and further purified by size exclusion chromatography. Fractions representing monomeric protein were pooled, concentrated, aliquoted, and frozen at −80° C. for use in subsequent experiments.
Binding of tetra-acetylated histone H4 and BET bromodomains was confirmed by a Time Resolved Fluorescence Resonance Energy Transfer (TR-FRET) method. N-terminally His-tagged bromodomains (200 nM) and biotinylated tetra-acetylated histone H4 peptide (25-50 nM, Millipore) were incubated in the presence of Europium Cryptate-labeled streptavidin (Cisbio Cat. #610SAKLB) and XL665-labeled monoclonal anti-His antibody (Cisbio Cat. #61HISXLB) in a white 96 well microtiter plate (Greiner). For inhibition assays, serially diluted test compound was added to these reactions in a 0.2% final concentration of DMSO. Final buffer concentrations were 30 mM HEPES pH 7.4, 30 mM NaCl, 0.3 mM CHAPS, 20 mM phosphate pH 7.0, 320 mM KF, 0.08% BSA). After a 2-h incubation at room temperature, the fluorescence by FRET was measured at 665 and 620 nm by a SynergyH4 plate reader (Biotek). Illustrative results with the first bromodomain of Brd4 and the second bromodomain of Brd2 are shown below. The binding inhibitory activity was shown by a decrease in 665 nm fluorescence relative to 620 nm. IC50 values were determined from a dose response curve.

[2] = biological target: T2, Brd4 bromodomain 1 (BRD4(1)) (Homo sapiens, UniProt O60885); test: Inhibition of tetra-acetylated histone H4 binding to Brd4 bromodomain 1 (TR-FRET); conditions: tetra-acetylated histone H4 peptide, active = IC50 <30 μM
T2 construct: Illustrative results with the first bromodomain of Brd4; made in house; host or cells: E. coli BL21 (DE3)
Summary of the method: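 N-terminally His-tagged bromodomains (200 nM), expressed in E. coli, were incubated with biotinylated tetra-acetylated histone H4 peptide (25-50 nM), Eu-cryptate streptavidin and XL665 anti-His antibody in HEPES pH 7.4 buffer with KF, 0.2% DMSO, 2 h at room temperature. Inhibition read as decreased 665/620 nm TR-FRET; IC50 from dose-response curves.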

hIL-6 mRNA = test: Inhibition of hIL-6 mRNA transcription in U937 cells; assay type: cell-based, human; conditions: LPS stimulation, active = IC50 <30 μM
Procedure: In this example, hIL-6 mRNA in tissue culture cells was quantitated to measure the transcriptional inhibition of hIL-6 when treated with a compound of the present disclosure.
A human leukemic monocyte lymphoma cell line (U937) was plated (3.2×10^4 cells per well) in a 96-well plate in […] RPMI-1640 containing 10% FBS and penicillin/streptomycin, and differentiated into macrophages for 3 days in 60 ng/mL PMA ([…]) at 37° C. in 5% CO2 prior to the addition of the compound of interest. The cells were pretreated for 1 h with the test compound prior to stimulation with 1 ug/mL lipopolysaccharide from Escherichia coli. The cells were incubated at 37° C. for 3 h before the cells were harvested. At time of harvest, the spent media was removed from the cells and the cells were rinsed in […] PBS. Cell lysis solution (70 μL) was added the cells in each well and incubated for 5-10 min at room temperature, to allow for complete cell lysis and detachment. mRNA was then prepared using the “mRNA Catcher PLUS plate” (Invitrogen), according to the protocol supplied. After the last wash, as much wash buffer as possible was aspirated without allowing the wells to dry. Elution buffer (E3, 70 μL) was then added to each well. mRNA was then eluted by incubating the mRNA Catcher PLUS plate with Elution Buffer for 5 min at 68° C. and then immediately placing the plate on ice.
The eluted mRNA isolated was then used in a one-step quantitative real-time PCR reaction, using components of the Ultra Sense Kit together with Applied Biosystems primer-probe mixes. Real-time PCR data was analyzed, normalizing the Ct values for hIL-6 to an internal control, prior to determining the fold induction of each unknown sample, relative to the control.

Structure (SMILES) | FRET activity (IC50 <30 μM) BRD2(2) [1] | FRET activity (IC50 <30 μM) BRD4(1) [2] | IL-6 activity (IC50 <30 μM) (hIL-6 mRNA)
Cc1noc(C)c1-c1ccc(=O)n(C(C)c2ccccc2Cl)c1 (centres unmarked) [Example 103, 1-(1-(2-Chlorophenyl)ethyl)-5-(3,5-dimethylisoxazol-4-yl)pyridin-2(1H)-one] | Active | Active | Not Active
Cc1noc(C)c1-c1ccc(=O)n(Cc2cccc3cccnc23)n1 [Example 102, 6-(3,5-Dimethylisoxazol-4-yl)-2-(quinolin-8-ylmethyl)pyridazin-3(2H)-one] | Active | Active | Active
CNC(=O)c1ccc(Cn2nc(-c3c(C)noc3C)ccc2=O)cc1 [Example 89, 4-((3-(3,5-Dimethylisoxazol-4-yl)-6-oxopyridazin-1(6H)-yl)methyl)-N-methylbenzamide] | Active | Active | Not Active
Cc1ccc(Cn2cc(-c3c(C)noc3C)cc(N)c2=O)cn1 [Example 258, 3-amino-5-(3,5-dimethylisoxazol-4-yl)-1-((6-methylpyridin-3-yl)methyl)pyridin-2(1H)-one] |  | Active | Active
Cc1cccc(Cn2cc(-c3c(C)noc3C)cc(N)c2=O)n1 [Example 244, 3-amino-5-(3,5-dimethylisoxazol-4-yl)-1-((6-methylpyridin-2-yl)methyl)pyridin-2(1H)-one] |  | Active | Active
Cc1noc(C)c1-c1ccc(=O)n(Cc2ccc(Cl)c(F)c2)c1 [Example 141, 1-(4-Chloro-3-fluorobenzyl)-5-(3,5-dimethylisoxazol-4-yl)pyridin-2(1H)-one] | Active | Active | Active
Cc1noc(C)c1-c1ccc(=O)n(Cc2ccncc2)c1 [Example 129, 5-(3,5-Dimethylisoxazol-4-yl)-1-(pyridin-4-ylmethyl)pyridin-2(1H)-one] | Active | Active | Active
Cc1noc(C)c1-c1ccc(=O)n(Cc2cccnc2)c1 [Example 44, 5-(3,5-Dimethylisoxazol-4-yl)-1-(pyridin-3-ylmethyl)pyridin-2(1H)-one] | Active | Active | Not Active
Cc1noc(C)c1-c1cc(Nc2cccnn2)c(=O)n(Cc2ccccc2)c1 [Example 221, 1-benzyl-5-(3,5-dimethylisoxazol-4-yl)-3-(pyridazin-3-ylamino)pyridin-2(1H)-one] |  | Active | Not Active
Cc1noc(C)c1-c1ccc(=O)n(CC2CCOCC2)n1 [Example 37, 6-(3,5-Dimethylisoxazol-4-yl)-2-((tetrahydro-2H-pyran-4-yl)methyl)pyridazin-3(2H)-one] | Active | Active | 
COc1ccc(-c2nn(Cc3ccccc3)c(=O)c3ccccc23)c(OC)c1OC [Example 177, 2-Benzyl-4-(2,3,4-trimethoxyphenyl)phthalazin-1(2H)-one] | Active | Active | 
Cc1ccc(Cn2cc(-c3c(C)noc3C)ccc2=O)cc1 [Example 41, 5-(3,5-Dimethylisoxazol-4-yl)-1-(4-methylbenzyl)pyridin-2(1H)-one] | Active | Active | 
Cc1[nH]cnc1-c1ccc(=O)n(Cc2ccccc2)c1 [Example 81, 1-Benzyl-5-(5-methyl-1H-imidazol-4-yl)pyridin-2(1H)-one] | Active | Not Active | 
